Consider 5 molecules from patent US20120149663A1, “BORONIC ACID COMPOSITIONS AND METHODS RELATED TO CANCER” (GEORGETOWN UNIVERSITY, priority 2009, published 2012).

Read-outs that look alike come from different tables or passages of the source.

For series [1], the system named is CL 10.3 cells (MCF-7 MDR, over-expresses the MDR gene). The experiment in a line: Cell growth assay (WST-1 assay), multidrug resistant CL 10.3. Format: cell-based, human. Particulars: for Activity in multidrug resistant cells (in words): CL 10.3 compared with MCF-7; for MDR GI50/non-MDR GI50: CL 10.3 versus MCF-7, 72 h; for GI50: CL 10.3 Breast (MDR), 72 h, read-out: Cell Survival (WST-1 assay, GI50, 72 h) CL 10.3; for P-glycoprotein substrate (in words): inferred from activity in MDR cell line CL 10.3. On the procedure:
IC50 value (the concentration yielding 50% growth inhibition) was extrapolated from the graph of the log of compound concentration versus the fraction of surviving cells. The 1050 for each cell line was calculated using graph pad prism. Data are expressed as mean (SEM) of triplicate sample. Results are mean value of triplicate samples.
ER-Positive (MCF-7) human breast carcinoma cell line was used in this study. The human breast cell lines MCF-7 (HTB-22) were provided by the tissue culture core facility at Lombardi Comprehensive Cancer Center, Georgetown University Medical Center. MCF-7^MDR (CL 10.3) cells were a gift from Dr. Robert Clarke from the Georgetown University Medical Center. MCF-7, and CL 10.3 cells were maintained in DMEM (Biofluids, Frederick, Md.) supplemented 10% heat inactivated fetal bovine serum (FBS), 2 mM L-glutamine, and 50 μg/mL each of antibiotics, namely penicillin, streptomycin, and neomycin at 37° C. in a humidified incubator containing 5% CO2.
(§1) The effect of cis-4 and trans-4 or resveratrol on cell growth was determined by WST-1 assay. Briefly, cells were seeded into a 96-well plate at 3,500 cells per well in DMEM containing 10% FBS. After overnight incubation, cells were treated with the compounds (1-100 μM) for 48 h and 72 h at 37° C. Control cells were treated with an equal amount of DMSO. After the indicated incubation time, cell viability was measured by WST-1 assay according to the manufacturer's instructions (Roche). Briefly, 20 μL of WST-1 solution was added in each well and incubated for 2-4 hours. The water soluble tetrazolium salt of WST-1 is converted into orange formazan by dehydrogenase in the mitochondria of living cells. The formazan absorbance, which correlates to the number of living cells, was recorded at wavelengths of 450 nm and 630 nm using a microplate reader (Ultramark, Microplate Imaging System, Bio-Rad). The GI50 was calculated from the graph of the log of compound concentration versus the fraction of the surviving cells.
Background: Tetrazolium dyes change colour on reduction, which living cells bring about.

The test system of series [2] is ER+, estrogen-dependent human breast cancer MCF-7 cell line. Nature of the series: Cell growth assay (WST-1 assay), MCF-7. Format: cell-based. Particulars: for MCF-7 cell growth inhibition (in words): MCF-7, WST-1. The method, then: Results are the mean value of triplicate samples. […] Cell viability was finally determined by adding WST-1 reagent and measuring the optical absorbance at […] and 630 nm as described in “Materials and methods”. […] The IC50 for each cell line was calculated using graph pad prism. Data are expressed as mean (SEM) of triplicate samples. […] The IC50 for each cell line was calculated using graph pad prism. Data are expressed as mean (SEM) of triplicate sample. ER-Positive (MCF-7) human breast carcinoma cell line was used in this study. The human breast cell lines MCF-7 (HTB-22) were provided by the tissue culture core facility at Lombardi Comprehensive Cancer Center, Georgetown University Medical Center. […] Robert Clarke from the Georgetown University Medical Center. […] The effect of cis-4 and trans-4 or resveratrol on cell growth was determined by WST-1 assay. Briefly, cells were seeded into a 96-well plate at 3,500 cells per well in DMEM containing 10% FBS. After overnight incubation, cells were treated with the compounds (1-100 μM) for 48 h and 72 h at 37° C. Control cells were treated with an equal amount of DMSO. After the indicated incubation time, cell viability was measured by WST-1 assay according to the manufacturer's instructions (Roche). […] The water soluble tetrazolium salt of WST-1 is converted into orange formazan by dehydrogenase in the mitochondria of living cells. The formazan absorbance, which correlates to the number of living cells, was recorded at wavelengths of 450 nm and 630 nm using a microplate reader (Ultramark, Microplate Imaging System, Bio-Rad). The GI50 was calculated from the graph of the log of compound concentration versus the fraction of the surviving cells.

Series [3] concerns MCF-7 cells. As to conditions: MCF-7, 300 μM, Clin Cancer Res 2002; cited from earlier work.
The test system of series [4] is MCF-7 cells. The experiment in a line: Cell cycle analysis by flow cytometry (propidium iodide). Type of series: cell-based, human. Particulars: MCF-7, 30 μM, 16, 24, 48 h. On the procedure: FIGS. 10A and 10B show the effect of compounds on cell cycle distribution in MCF-7 breast cancer cell lines. A. […] B. Percentage of DNA distribution of trans-4 in G1 phase was presented in a bar graph. Results are represented as a mean of triplicate samples. The experiment was repeated thrice with identical results. The effect of cis-4, trans-4 or resveratrol on cell cycle progression was analyzed by flow cytometry. Cells were seeded in 6-well plates and treated with 30 μM of compound 1 or 2 at different time intervals (16, 24, 48 h). Cells were trypsinized, centrifuged at 2000 rpm and cell pellets were collected. Pellets were washed with 1×PBS, permeabilized with 70% (v/v) ethanol, resuspended in 1 ml of PBS containing 1 mg/ml RNase and […] propidium iodide, incubated in the dark for 30 min at room temperature, and analysed by a FACSort Flow Cytometer (Becton Dickinson, San jose, CA). The cell cycle distribution was evaluated on DNA plots using the Modfit software (Verity softwarehouse, Topsham, Me.).
Background: Flow cytometry measures light scatter and fluorescence of single cells or particles in a stream.

Series [5] relates to E2-mediated MCF-7 cell growth. Nature of the series: DNA content in estrogen mediated MCF-7 cell growth. Format: cell-based, human. As to conditions: E2 10^−9M constant. On the procedure: After 5 days incubation, the DNA content of the treated cells was measured using a DNA fluorescence kit (Bio Rad #170-2480). Results are shown as the mean of triplicate samples±SD. The experiment was repeated twice with identical results. […] Cells were then seeded in 24 well plates at 10000 cells per well in 1 ml of estrogen depleted media. […] Cells were incubated at 37° C. for an additional 4 days. Media were removed and cells were frozen at −78° C. overnight and the DNA content in each well was measured according to the manufacturer's protocol (DNA Quantification Kit, Bi0-Rad). Results are represented as mean of triplicate sample and repeated the experiment with identical results.

The subject of series [6] is MCF-7 cells. The experiment in a line: Combination with flavopiridol, WST-1 cell viability. As to conditions: for Sensitization to flavopiridol (in words): MCF-7; for GI50: Homo sapiens, MCF7. Type of series: cell-based, human. On the procedure: as §1, with “A Wst-1 assay was performed to measure the cell viability as mentioned in the methods. GI50 are the average of triplicate samples and the experiment was repeated thrice with identical results. The effect” for “The effect”, “instructions (Roche). […] The water” for “instructions (Roche). Briefly, 20 μL of WST-1 solution was added in each well and incubated for 2-4 hours. The water”

Series [7] concerns cdk4, cdk2, cyclin E, cyclin D1 and pRb in MCF-7 cells. The experiment in a line: Western blot of G1 cell cycle proteins. Type of series: cell-based, human. Particulars: MCF-7, 24 h and 48 h, immunoblot. On the procedure:
MCF-7 cells were treated with the indicated concentrations of compound 2 for 24 hours and 48 hours and cell lysates were analyzed by immunoblotting. Protein expression of positive regulators such as cyclin D1, Cdk4, cyclinE, Cdk2 and phospho-Rb were detected by their specific antibodies. Human β-actin was analyzed as a control of gel loading. Twenty-micrograms of lysate was used for each experimental condition.
Western blotting was performed as previously published (J Biol Chem 2004, 279, 38903-38911). In brief, cell pellets were collected at the indicated times after treatment with compounds, suspended in 100 μl, of lysis buffer (50 mM Tris-HCl, 150 mM NaCl, 1 mM EGTA, 1 mM EDTA, 20 mM NaF, […], 0.5% NP-40, 1% Triton X-100, 1 mM PMSF, 5 μg/ml aprotinin, 5 μg/ml leupeptin), vortexed twice and incubated in an ice bath for 30 min Lysates were cleared by centrifugation at 12000 rpm for 15 min at 4° C. and protein was estimated by detergent compatible BCA protein assay kit (Pierce). Equivalent amounts of total proteins were resolved by SDS-PAGE (10%) and transferred to PVDF membranes. Membranes were blocked by 5% non-fat powdered milk in TBST overnight. […]
(In western blotting, separated proteins are transferred to a membrane and probed.)

The nature of series [8]: Stability compared with resveratrol. Type of series: physicochemical.
Where [9] appears, read: MCF-7, 48 h, read-out: Cell Survival (WST-1 assay, GI50) 48 hours.
[10] abbreviates: MCF-7, 72 h, read-out: Cell Survival (WST-1 assay, GI50) 72 hours.

`CC(=O)O[C@H]1C(=O)[C@@]2(C)[C@H]([C@H](OC(=O)c3ccccc3)[C@]3(O)C[C@H](OC(=O)[C@H](O)[C@@H](NC(=O)c4ccccc4)c4ccccc4)C(C)=C1C3(C)C)[C@]1(OC(C)=O)CO[C@@H]1C[C@@H]2O` [Paclitaxel, reference compound]: in series [1], the “Activity in multidrug resistant cells (in words)” value was “has no effect on CL 10.3 cells” and the “MDR GI50/non-MDR GI50” value is >25,000. In addition, the concentration for 50% growth inhibition (GI50) in series [1] (Homo sapiens, MCF7) was > 50 µM. For the same molecule, in series [2], the “MCF-7 cell growth inhibition (in words)” value is recorded as “strongly inhibits MCF-7 cell growth”.

For `Oc1ccc(C=Cc2cc(O)cc(O)c2)cc1` [Resveratrol, reference compound], the “Cell cycle arrest by resveratrol in previous studies (in words)” value in the series on MCF-7 cells [3] is listed as “S-phase cell cycle arrest”. Further, the “Effect on cell cycle distribution (in words)” value with MCF-7 cells [4] is given as “works at the G2/M1 phase”. For the same molecule, in series [5], the “Effect on E2-mediated MCF-7 cell growth (in words)” value is listed as “antagonizes E2-mediated MCF-7 cell growth”. Moreover, the “Sensitization to flavopiridol (in words)” value in the series with MCF-7 cells [6] was “does not sensitize the MCF-7 cells incubated with flavopiridol”. Besides, the GI50 in series [2] (Homo sapiens, MCF7, MCF-7, 48 h, read-out: Cell Survival (WST-1 assay, GI50) 48 hours) is […]; in series [2] (Homo sapiens, MCF7, MCF-7, 72 h, read-out: Cell Survival (WST-1 assay, GI50) 72 hours), […].

As for `CN1CC[C@H](c2c(O)cc(O)c3c(=O)cc(-c4ccccc4Cl)oc23)[C@H](O)C1` [flavopiridol, reference compound], the GI50 was 0.018 µM in the series with MCF-7 cells [6] (MCF-7, 10 μM trans-4 for 24 hours then flavopiridol 48 hours, read-out: GI50, combination of trans-4 with flavopiridol) and 0.3 µM in the series with MCF-7 cells [6] (MCF-7, flavopiridol alone, 48 h, read-out: GI50, flavopiridol only).

Take `COc1ccc(/C=C/c2cc(OC)c(OC)c(OC)c2)cc1B(O)O` [trans-4, 2-Methoxy-5-[(E)-2-(3,4,5-trimethoxyphenyl)vinyl]boronic acid]: the “Expression level of G1 cell cycle proteins (in words)” value in series [7] (listed as YK-5-104) is “decreases the pRb levels”; in series [7] (listed as compound 2), “decreases the expression level of cdk4, cdk2, cyclin E, cyclin D1 and pRb”. In series [8], the “Stability compared with Resveratrol (in words)” value is “more stable than Resveratrol”. In addition, the results for the 50% growth inhibitory concentration (GI50) in series [1], in series [2] (setting [9]) and in series [2] (setting [10]) were 49.09 ± 0.001 µM, 36.6 µM and 31.1 ± 0.05 µM, respectively. Moreover, the “Activity in multidrug resistant cells (in words)” value was “equipotent in CL 10.3 and MCF-7 cells” in series [1]; “can work on multidrug resistant cell lines” in series [1] (listed as Compound 2). The “MDR GI50/non-MDR GI50” value in series [1] stood at 1.57. Also, the “P-glycoprotein substrate (in words)” value in series [1] is “likely not a substrate for P-glycoprotein”; in series [1] (listed as YK-5-104), “not a substrate for p-glycoprotein”. For the same molecule, the “Effect on E2-mediated MCF-7 cell growth (in words)” value in series [5] was “does not have any effect on E2-induced cell growth”. For the same molecule, the “Sensitization to flavopiridol (in words)” value in the series on MCF-7 cells [6] is recorded as “modulates the flavopiridol mediated cell viability”. For the same molecule, the “Fold increase in growth inhibition compared with trans-4” value with MCF-7 cells [6] (MCF-7, opposite administration: 100 nM flavopiridol 24 hours then trans-4) came out at 7 fold. The “Fold increase of flavopiridol mediated growth inhibition compared with flavopiridol alone” value with MCF-7 cells [6] (MCF-7, trans-4 then flavopiridol) was 16.6 fold. In addition, in series [2] (breast cancer), the “Activity relative to Resveratrol” value is 3 fold.

“[(Z)-2-(3,5-dimethoxyphenyl)vinyl]phenylboronic Acid [cis-4]”: the concentration for 50% growth inhibition (GI50) in series [2] (setting [9]) and in series [2] (setting [10]) was > 100 µM in each case. In series [2], the “MCF-7 cell growth inhibition (in words)” value is “does not show any growth inhibition at 100 μM”.

In general, GI50 refers to the concentration at which growth is held to half of that of the control.
